Values of other authors as cited in US9585850B2, “Methods of treatment using arylcyclopropylamine compounds” (Duke University, priority 2011, dated 2017).

Tested on: DDD mice
Conditions: Sotnikova et al.

| SMILES | restoration of locomotion / treatment of akinesia in DDD mice |
| --- | --- |
| N[C@@H](Cc1ccc(O)c(O)c1)C(=O)O [L-DOPA, L-3,4-dihydroxyphenylalanine] | fully restored locomotion |
| CN1CCc2cccc3c2[C@H]1Cc1ccc(O)c(O)c1-3 [apomorphine] | effective in treating akinesia |
| CCCN1C[C@H](CSC)C[C@@H]2c3cccc4[nH]cc(c34)C[C@H]21 [pergolide] | effective in treating akinesia |
